Laboratory results: patent US4016258A, “Vasoactive intestinal peptide from fowl” (priority 1975, dated 1977)
Ends that are not written are not given here.

What was measured:
Intact anesthetized dogs = experiment: Intact anesthetized dogs: infusion into one femoral artery, femoral blood flow and aortic blood pressure measured; format: in vivo, dog; conditions: for hypotensive effect compared with the porcine peptide: dogs, comparison with porcine vasoactive intestinal peptide
Text: 1. Intact anesthetized dogs
The peptide was infused into one femoral artery, and the blood flow in that artery, as well as the aortic blood pressure, were continually measured. During the infusion of the peptide, blood pressure fell and blood flow increased, indicating peripheral vasodilation.

rat stomach = experiment: Isolated smooth-muscle organ strips superfused in series: rat stomach; conditions: rat stomach strip superfused with Krebs solution; often initial brief contraction followed by relaxation
Text: (§1) 2. Isolated smooth-muscle organs
(§2) Four strips of smooth-muscle organs: rat stomach, guinea pig trachea, rat colon, and guinea pig gallbladder, were placed in series and superfused with warm physiological solution (Krebs), bubbled with 95% O2 and 5% CO2. The organ strips were attached to special transducers which measured their contraction or relaxation.

guinea pig trachea = experiment: Isolated smooth-muscle organ strips superfused in series: guinea pig trachea
Text: as §1, §2

rat colon = experiment: Isolated smooth-muscle organ strips superfused in series: rat colon; conditions: rat colon strip superfused with Krebs solution
Text: as §1, §2

guinea pig gallbladder = experiment: Isolated smooth-muscle organ strips superfused in series: guinea pig gallbladder; conditions: guinea pig gallbladder strip superfused with Krebs solution
Text: as §1, §2

## HSDAVFTDNYSRFRKQMAVKKYLNSVLT-NH2 [chicken peptide]
Intact anesthetized dogs; anesthetized dogs, infusion into femoral artery
  aortic blood pressure during infusion: fell
Intact anesthetized dogs; anesthetized dogs, infusion into femoral artery, indicates peripheral vasodilation
  blood flow in femoral artery during infusion: increased
Intact anesthetized dogs
  hypotensive effect compared with the porcine peptide: less marked and shorter lasting
Intact anesthetized dogs; listed as peptide
  hypotensive effect compared with the porcine peptide: relatively short duration
Rat stomach
  effect on stomach strip: relaxation
Guinea pig trachea; doses eliciting equal relaxation of stomach, chicken vs porcine peptide
  relaxation of trachea compared with porcine peptide: many times greater
Guinea pig trachea; guinea pig trachea strip superfused with Krebs solution
  effect on trachea strip: relaxation
Guinea pig trachea; in comparison with porcine vasoactive intestinal peptide
  relaxant potency on guinea pig trachea relative to other smooth muscles tested: relatively more potent relaxant
Rat colon
  effect on colon strip: usually contracted
Guinea pig gallbladder
  effects on gallbladder strip: variable
